Assay results: ChEMBL document CHEMBL1201862, “PubChem BioAssay data set” (2004)
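Compound exposure: 48 hours, 5 concentrations, 96-well plates. GI50 = concentration required for 50% inhibition of growth.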 Active and inactive are the calls of the source. Cut-off read from the data, not from the text of the source: active = GI50 up to about 1.1 µM and inactive = higher.

Tests used:
Experiment in all cases: NCI anticancer screen, dose series, 48 h
Malme-3M = tested on: Malme-3M
MDA-N = tested on: MDA-N
DU-145 = tested on: DU-145
A549 = tested on: A549
EKVX = tested on: EKVX
RPMI-8226 = tested on: RPMI-8226
SK-MEL-2 = tested on: SK-MEL-2
SK-MEL-28 = tested on: SK-MEL-28
KM12 = tested on: KM12
OVCAR-3 = tested on: OVCAR-3
NCI-H522 = tested on: NCI-H522
HCC 2998 = tested on: HCC 2998
Hs-578T = tested on: Hs-578T
MDA-MB-231 = tested on: MDA-MB-231
ACHN = tested on: ACHN
TK-10 = tested on: TK-10
786-0 = tested on: 786-0
OVCAR-5 = tested on: OVCAR-5

Measured: GI50

COc1cc(CNC(=O)CCCCCCCC/C=C/Br)ccc1O
inactive: Malme-3M > 10 µM | MDA-N > 10 µM | DU-145 > 10 µM | A549 > 10 µM | EKVX > 10 µM | RPMI-8226 > 10 µM | SK-MEL-2 > 10 µM | SK-MEL-28 > 10 µM | KM12 > 10 µM | OVCAR-3 > 10 µM | NCI-H522 > 10 µM | HCC 2998 > 10 µM | Hs-578T > 10 µM | MDA-MB-231 > 10 µM | ACHN > 10 µM | TK-10 > 10 µM | 786-0 > 10 µM

COC(=O)Nc1nc(=O)c2cc(OC)c(OC)cc2[nH]1
inactive: Malme-3M 5.31 µM | MDA-N 2.31 µM | DU-145 32.7 µM | A549 > 100 µM | EKVX > 100 µM | SK-MEL-2 > 100 µM | SK-MEL-28 63 µM | KM12 5.31 µM | OVCAR-3 > 100 µM | NCI-H522 2.37 µM | HCC 2998 71.3 µM | Hs-578T 66.1 µM | OVCAR-5 > 100 µM | MDA-MB-231 81.3 µM | ACHN > 100 µM | TK-10 > 100 µM | 786-0 45.5 µM

CCCCc1ccc(Nc2nc(S)c3ncn(COCCO)c3n2)cc1
inactive: Malme-3M 23.3 µM | MDA-N 41.9 µM | DU-145 56.9 µM | A549 > 100 µM | EKVX 60.5 µM | RPMI-8226 21.3 µM | SK-MEL-2 23.4 µM | KM12 38 µM | OVCAR-3 21 µM | NCI-H522 20.9 µM | HCC 2998 36.8 µM | Hs-578T 36.3 µM | OVCAR-5 86.5 µM | MDA-MB-231 15.4 µM | ACHN 43.1 µM | TK-10 66.2 µM | 786-0 > 100 µM

c1ccc(C(=NCCC2CNc3ccccc32)c2ccccc2)cc1 (configuration not stated)
inactive: Malme-3M > 100 µM | MDA-N > 100 µM | DU-145 > 100 µM | A549 > 100 µM | EKVX > 100 µM | RPMI-8226 > 100 µM | SK-MEL-2 > 100 µM | SK-MEL-28 > 100 µM | KM12 > 100 µM | OVCAR-3 > 100 µM | NCI-H522 > 100 µM | HCC 2998 > 100 µM | Hs-578T > 100 µM | OVCAR-5 > 100 µM | MDA-MB-231 > 100 µM | ACHN > 100 µM | 786-0 > 100 µM

c1ccc(-c2c3c(nc4c2CC[C@H]4NC2=NCCN2)[C@@H](NC2=NCCN2)CC3)cc1
inactive: Malme-3M > 100 µM | MDA-N > 100 µM | DU-145 > 100 µM | A549 > 87.9 µM | EKVX > 100 µM | SK-MEL-2 > 100 µM | SK-MEL-28 > 100 µM | KM12 > 100 µM | OVCAR-3 65.8 µM | NCI-H522 > 100 µM | HCC 2998 27 µM | Hs-578T > 100 µM | OVCAR-5 > 100 µM | MDA-MB-231 > 100 µM | ACHN > 100 µM | TK-10 > 100 µM | 786-0 > 100 µM

COc1ccc(N2C(=O)C3c4[nH]c5ccccc5c4C4CCCCCCCC4C3C2=O)cc1 (configuration not stated)
inactive: Malme-3M > 10 µM | MDA-N > 10 µM | DU-145 > 10 µM | A549 > 10 µM | EKVX > 10 µM | RPMI-8226 > 10 µM | SK-MEL-2 > 10 µM | SK-MEL-28 > 10 µM | KM12 > 10 µM | OVCAR-3 > 10 µM | NCI-H522 > 10 µM | HCC 2998 > 10 µM | Hs-578T > 10 µM | OVCAR-5 > 10 µM | MDA-MB-231 > 10 µM | ACHN > 10 µM | TK-10 > 10 µM

N#Cc1sc2c(c1O)c(=O)n(-c1ccccc1)c(=S)n2-c1ccccc1
inactive: Malme-3M > 100 µM | MDA-N > 100 µM | DU-145 > 100 µM | A549 > 100 µM | RPMI-8226 > 100 µM | SK-MEL-2 > 100 µM | SK-MEL-28 > 100 µM | KM12 > 100 µM | OVCAR-3 > 100 µM | NCI-H522 > 100 µM | HCC 2998 > 100 µM | Hs-578T > 100 µM | OVCAR-5 > 100 µM | MDA-MB-231 > 100 µM | ACHN > 100 µM | TK-10 > 100 µM | 786-0 > 100 µM

COC1OC(CO)C(O)C(OC(=O)c2cc(O)c(O)c(O)c2)C1OC(=O)c1cc(O)c(O)c(O)c1 (configuration not stated)
inactive: Malme-3M > 100 µM | MDA-N 25.1 µM | DU-145 > 100 µM | A549 > 100 µM | EKVX > 100 µM | RPMI-8226 > 100 µM | SK-MEL-2 > 100 µM | SK-MEL-28 > 100 µM | KM12 > 100 µM | OVCAR-3 > 100 µM | NCI-H522 30.5 µM | Hs-578T > 100 µM | OVCAR-5 > 100 µM | MDA-MB-231 > 100 µM | ACHN 58.2 µM | TK-10 > 100 µM | 786-0 > 100 µM

CCOC(=O)c1c2cccccc-2nc1Nc1cccc2c(C)ccnc12
inactive: Malme-3M > 10 µM | MDA-N > 10 µM | DU-145 > 10 µM | A549 > 10 µM | EKVX > 10 µM | RPMI-8226 3.03 µM | SK-MEL-2 > 10 µM | SK-MEL-28 > 10 µM | KM12 > 10 µM | OVCAR-3 4.81 µM | HCC 2998 > 10 µM | Hs-578T > 10 µM | OVCAR-5 > 10 µM | MDA-MB-231 > 10 µM | ACHN 6.14 µM | TK-10 > 10 µM | 786-0 > 10 µM

COc1ccc(C2(C3c4cc(OC)c(OC)cc4CCN3C)SCCCS2)cc1O (configuration not stated)
inactive: Malme-3M > 100 µM | MDA-N > 100 µM | DU-145 > 100 µM | A549 > 100 µM | EKVX 60 µM | RPMI-8226 > 100 µM | SK-MEL-2 > 100 µM | SK-MEL-28 68.2 µM | KM12 71.8 µM | OVCAR-3 > 100 µM | NCI-H522 41.7 µM | HCC 2998 > 100 µM | Hs-578T 23.7 µM | OVCAR-5 > 100 µM | MDA-MB-231 > 100 µM | TK-10 > 100 µM | 786-0 > 100 µM

COc1cc(/C=C/C(=O)OCC23CC[C@@]4(C(=O)O)CCC(C)[C@H](C)C4C2=CCC2[C@@]4(C)CC[C@H](O)C(C)(C)C4CC[C@]23C)ccc1O (some centres not stated)
inactive: Malme-3M 11.9 µM | MDA-N 24.3 µM | DU-145 10.2 µM | A549 7.76 µM | EKVX 15.5 µM | SK-MEL-2 22.5 µM | SK-MEL-28 37.8 µM | KM12 29.9 µM | OVCAR-3 3.88 µM | NCI-H522 3.98 µM | HCC 2998 54.1 µM | Hs-578T 4.66 µM | OVCAR-5 21.7 µM | MDA-MB-231 46.3 µM | ACHN 3.05 µM | TK-10 2.97 µM | 786-0 11 µM

FC(F)(F)c1ccc2c(c1)nc(Cc1ccc(Cl)cc1)n2CC1CCCN2CCCCC12 (configuration not stated)
inactive: Malme-3M 1.73 µM | MDA-N 1.52 µM | DU-145 10 µM | A549 12.6 µM | EKVX 11.1 µM | SK-MEL-2 13.6 µM | SK-MEL-28 2.52 µM | KM12 5.02 µM | OVCAR-3 3.8 µM | NCI-H522 4.37 µM | HCC 2998 2.11 µM | Hs-578T 1.19 µM | OVCAR-5 12.5 µM | MDA-MB-231 3.27 µM | ACHN 11.5 µM | TK-10 12.2 µM | 786-0 7.67 µM

c1ccc(COC2C3COC(O3)C(OCc3ccccc3)C2OCc2ccccc2)cc1 (configuration not stated)
inactive: MDA-N 63.7 µM | DU-145 78.5 µM | EKVX 38.7 µM | RPMI-8226 12.2 µM | SK-MEL-2 54.3 µM | KM12 29.6 µM | OVCAR-3 57.8 µM | NCI-H522 15.1 µM | HCC 2998 14.6 µM | Hs-578T 31.4 µM | OVCAR-5 69.5 µM | MDA-MB-231 > 100 µM | ACHN 27.5 µM | TK-10 70.5 µM | 786-0 64.4 µM

C[C@H](CCC(=O)O)[C@H]1CC[C@H]2[C@@H]3[C@@H](O)C[C@@H]4C[C@H](O)CC[C@]4(C)[C@H]3C[C@H](O)[C@]12C
inactive: Malme-3M > 100 µM | MDA-N > 100 µM | DU-145 > 100 µM | A549 > 100 µM | EKVX > 100 µM | RPMI-8226 > 100 µM | SK-MEL-2 > 100 µM | SK-MEL-28 > 100 µM | KM12 > 100 µM | NCI-H522 > 100 µM | HCC 2998 > 100 µM | Hs-578T 16.4 µM | OVCAR-5 > 100 µM | MDA-MB-231 > 100 µM | ACHN > 100 µM | TK-10 > 100 µM | 786-0 > 100 µM

Cc1cn(C2CC(n3cc(Cn4cc(I)c(=O)[nH]c4=O)nn3)C(CO)O2)c(=O)[nH]c1=O (configuration not stated)
inactive: MDA-N > 100 µM | DU-145 > 100 µM | A549 > 100 µM | RPMI-8226 > 100 µM | SK-MEL-2 > 100 µM | SK-MEL-28 > 100 µM | KM12 > 100 µM | OVCAR-3 > 100 µM | HCC 2998 > 100 µM | Hs-578T > 100 µM | OVCAR-5 > 100 µM | MDA-MB-231 > 100 µM | ACHN > 100 µM | TK-10 > 100 µM

CCOP(=O)(OCC)C(c1ccc(F)cc1)N(C(=O)NC(F)(F)F)c1ccc(F)cc1 (configuration not stated)
inactive: Malme-3M > 100 µM | MDA-N > 100 µM | DU-145 > 100 µM | A549 > 100 µM | EKVX > 100 µM | RPMI-8226 > 100 µM | SK-MEL-28 > 100 µM | KM12 > 100 µM | OVCAR-3 > 100 µM | NCI-H522 > 100 µM | HCC 2998 > 100 µM | Hs-578T > 100 µM | OVCAR-5 > 100 µM | MDA-MB-231 > 100 µM | ACHN > 100 µM | TK-10 > 100 µM | 786-0 > 100 µM
